Measured values from ChEMBL document CHEMBL1773033, “Cyclic lactam hybrid α-MSH/Agouti-related protein (AGRP) analogues with nanomolar range binding affinities at the human melanocortin receptors” (Bioorg Med Chem Lett, 2011).
Positions of bridges follow the written chain, without caps; N, C: chain ends. Non-standard residues stand in square brackets, D forms with d. Residues, ends and D or L forms follow the SMILES beside them.

What was measured:
[1] = molecular target: T1, Melanocyte-stimulating hormone receptor (Homo sapiens, UniProt Q01726); test: Displacement of [125I]-NDP-alpha-MSH from human MC1R expressed in HEK293 cells at 10 uM after 40 mins by Wallac 1470 gamma counting relative to Ac-Nle-c[Asp-His-D-Phe-Arg-Trp-Lys]-NH2; format: cell-based
Target sequence in this assay (Q01726 whole entry, looked up): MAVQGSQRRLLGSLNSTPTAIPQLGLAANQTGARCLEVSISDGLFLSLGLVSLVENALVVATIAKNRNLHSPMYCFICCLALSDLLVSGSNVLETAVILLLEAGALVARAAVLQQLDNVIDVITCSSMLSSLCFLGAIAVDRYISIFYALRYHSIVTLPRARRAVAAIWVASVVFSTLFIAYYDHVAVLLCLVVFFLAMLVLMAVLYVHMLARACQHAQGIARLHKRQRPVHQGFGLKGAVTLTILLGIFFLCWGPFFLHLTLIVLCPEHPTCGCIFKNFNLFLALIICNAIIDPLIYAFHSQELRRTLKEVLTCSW

Melanocortin receptor 3 [2] = molecular target: T2, Melanocortin receptor 3 (Homo sapiens, UniProt P41968); test: Displacement of [125I]-NDP-alpha-MSH from human MC3R expressed in HEK293 cells at 10 uM after 40 mins by Wallac 1470 gamma counting relative to Ac-Nle-c[Asp-His-D-Phe-Arg-Trp-Lys]-NH2; format: cell-based
T2 sequence (P41968 whole entry): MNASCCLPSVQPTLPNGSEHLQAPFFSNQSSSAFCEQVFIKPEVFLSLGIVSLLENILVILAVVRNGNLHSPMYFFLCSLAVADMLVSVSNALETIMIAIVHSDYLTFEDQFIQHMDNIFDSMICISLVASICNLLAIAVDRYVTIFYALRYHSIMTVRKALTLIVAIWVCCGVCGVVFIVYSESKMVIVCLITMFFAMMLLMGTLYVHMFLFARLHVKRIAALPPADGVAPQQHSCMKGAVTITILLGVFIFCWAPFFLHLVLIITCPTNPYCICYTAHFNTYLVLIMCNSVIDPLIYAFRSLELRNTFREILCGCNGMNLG

Melanocortin receptor 4 [3] = molecular target: T3, Melanocortin receptor 4 (Homo sapiens, UniProt P32245); test: Displacement of [125I]-NDP-alpha-MSH from human MC4R expressed in HEK293 cells at 10 uM after 40 mins by Wallac 1470 gamma counting relative to Ac-Nle-c[Asp-His-D-Phe-Arg-Trp-Lys]-NH2; format: cell-based
T3 sequence (P32245 whole entry): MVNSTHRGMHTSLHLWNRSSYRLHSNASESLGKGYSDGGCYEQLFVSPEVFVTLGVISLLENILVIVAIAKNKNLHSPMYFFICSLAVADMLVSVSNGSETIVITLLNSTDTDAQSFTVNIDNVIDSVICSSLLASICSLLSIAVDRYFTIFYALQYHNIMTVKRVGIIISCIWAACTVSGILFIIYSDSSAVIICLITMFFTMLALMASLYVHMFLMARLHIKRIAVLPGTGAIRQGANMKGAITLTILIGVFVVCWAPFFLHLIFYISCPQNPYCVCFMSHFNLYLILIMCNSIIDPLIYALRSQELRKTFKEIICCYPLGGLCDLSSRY

Melanocortin receptor 5 [4] = molecular target: T4, Melanocortin receptor 5 (Homo sapiens, UniProt P33032); test: Displacement of [125I]-NDP-alpha-MSH from human MC5R expressed in HEK293 cells at 10 uM after 40 mins by Wallac 1470 gamma counting relative to Ac-Nle-c[Asp-His-D-Phe-Arg-Trp-Lys]-NH2; format: cell-based
T4 sequence (P33032 whole entry): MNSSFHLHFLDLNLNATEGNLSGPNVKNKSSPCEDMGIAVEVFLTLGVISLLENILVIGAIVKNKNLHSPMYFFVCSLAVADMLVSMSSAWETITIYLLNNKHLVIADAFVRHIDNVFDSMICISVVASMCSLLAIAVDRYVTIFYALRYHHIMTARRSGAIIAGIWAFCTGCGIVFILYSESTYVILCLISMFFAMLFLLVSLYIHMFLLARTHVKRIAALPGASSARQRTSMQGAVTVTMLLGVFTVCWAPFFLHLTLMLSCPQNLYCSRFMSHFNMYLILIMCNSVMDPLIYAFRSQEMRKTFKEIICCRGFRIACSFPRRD

[5] = molecular target: T1, Melanocyte-stimulating hormone receptor; test: Agonist activity at human MC1R expressed in HEK293 cells assessed as increase in intracellular cAMP accumulation; format: functional, cell-based
Target sequence in this assay (Q01726 whole entry): as the sequence (Q01726 whole entry, looked up) above

Melanocortin receptor 3 [6] = molecular target: T2, Melanocortin receptor 3; test: Agonist activity at human MC3R expressed in HEK293 cells assessed as intracellular cAMP accumulation; format: functional, cell-based
Melanocortin receptor 4 [7] = molecular target: T3, Melanocortin receptor 4; test: Agonist activity at human MC4R expressed in HEK293 cells assessed as intracellular cAMP accumulation; format: functional, cell-based
Melanocortin receptor 5 [8] = molecular target: T4, Melanocortin receptor 5; test: Agonist activity at human MC5R expressed in HEK293 cells assessed as intracellular cAMP accumulation; format: functional, cell-based
[9] = molecular target: T1, Melanocyte-stimulating hormone receptor; test: Agonist activity at human MC1R expressed in HEK293 cells assessed as increase in intracellular cAMP level at 10 uM after 3 mins by luminescence counter relative to Ac-Nle-c[Asp-His-D-Phe-Arg-Trp-Lys]-NH2; format: functional, cell-based
Target sequence in this assay (Q01726 whole entry, looked up): as above

Melanocortin receptor 3 [10] = molecular target: T2, Melanocortin receptor 3; test: Agonist activity at human MC3R expressed in HEK293 cells assessed as increase in intracellular cAMP level at 10 uM after 3 mins by luminescence counter relative to Ac-Nle-c[Asp-His-D-Phe-Arg-Trp-Lys]-NH2; format: functional, cell-based
Melanocortin receptor 4 [11] = molecular target: T3, Melanocortin receptor 4; test: Agonist activity at human MC4R expressed in HEK293 cells assessed as increase in intracellular cAMP level at 10 uM after 3 mins by luminescence counter relative to Ac-Nle-c[Asp-His-D-Phe-Arg-Trp-Lys]-NH2; format: functional, cell-based
Melanocortin receptor 5 [12] = molecular target: T4, Melanocortin receptor 5; test: Agonist activity at human MC5R expressed in HEK293 cells assessed as increase in intracellular cAMP level at 10 uM after 3 mins by luminescence counter relative to Ac-Nle-c[Asp-His-D-Phe-Arg-Trp-Lys]-NH2; format: functional, cell-based
[13] = molecular target: T1, Melanocyte-stimulating hormone receptor; test: Displacement of [125I]-NDP-alpha-MSH from human MC1R expressed in HEK293 cells after 40 mins by Wallac 1470 gamma counting; format: cell-based
Target sequence in this assay (Q01726 whole entry): as the sequence (Q01726 whole entry, looked up) above

Melanocortin receptor 3 [14] = molecular target: T2, Melanocortin receptor 3; test: Displacement of [125I]-NDP-alpha-MSH from human MC3R expressed in HEK293 cells after 40 mins by Wallac 1470 gamma counting; format: cell-based
Melanocortin receptor 4 [15] = molecular target: T3, Melanocortin receptor 4; test: Displacement of [125I]-NDP-alpha-MSH from human MC4R expressed in HEK293 cells after 40 mins by Wallac 1470 gamma counting; format: cell-based
Melanocortin receptor 5 [16] = molecular target: T4, Melanocortin receptor 5; test: Displacement of [125I]-NDP-alpha-MSH from human MC5R expressed in HEK293 cells after 40 mins by Wallac 1470 gamma counting; format: cell-based

Activity [1] [%] | Activity (Melanocortin receptor 3 [2]) [%] | Activity (Melanocortin receptor 4 [3]) [%] | Activity (Melanocortin receptor 5 [4]) [%] | EC50 [5] | EC50 (Melanocortin receptor 3 [6]) | EC50 (Melanocortin receptor 4 [7]) | EC50 (Melanocortin receptor 5 [8]) | Activity [9] [%] | Activity (Melanocortin receptor 3 [10]) [%] | Activity (Melanocortin receptor 4 [11]) [%] | Activity (Melanocortin receptor 5 [12]) [%] | IC50 [13] | IC50 (Melanocortin receptor 3 [14]) | IC50 (Melanocortin receptor 4 [15]) | IC50 (Melanocortin receptor 5 [16]) | Compound
0 | 0 | 0 | 0 | Not Active | Not Active | Not Active | Not Active | 0 | 0 | 0 | 0 | Not Active | Not Active | Not Active | Not Active | CC(=O)N[C@H]1CC(=O)NCCCC[C@@H](C(N)=O)NC(=O)[C@@H](CC(N)=O)NC(=O)[C@H](Cc2ccccc2)NC(=O)[C@H](Cc2c[nH]c3ccccc23)NC(=O)[C@H](CCCNC(=N)N)NC1=O (Ac-DRWF[dN]K-NH2; lactam 1-6)
0 | 0 | 0 | 0 | Not Active | Not Active | Not Active | Not Active | 0 | 0 | 0 | 0 | Not Active | Not Active | Not Active | Not Active | CC(=O)N[C@H]1CC(=O)NCCCC[C@@H](C(N)=O)NC(=O)[C@@H](CCC(N)=O)NC(=O)[C@H](Cc2ccccc2)NC(=O)[C@H](Cc2c[nH]c3ccccc23)NC(=O)[C@H](CCCNC(=N)N)NC1=O (Ac-DRWF[dQ]K-NH2; lactam 1-6)
0 | 0 | 0 | 0 | Not Active | Not Active | Not Active | Not Active | 0 | 0 | 0 | 0 | Not Active | Not Active | Not Active | Not Active | CC(=O)N[C@H]1CC(=O)NCCCC[C@@H](C(N)=O)NC(=O)[C@@H](CCCNC(=N)N)NC(=O)[C@H](Cc2ccccc2)NC(=O)[C@H](Cc2c[nH]c3ccccc23)NC(=O)[C@H](CCCNC(=N)N)NC1=O (Ac-DRWF[dR]K-NH2; lactam 1-6)
